# Target: T1, GPR84 (Homo sapiens, UniProt Q9NQS5)
# T1 construct: expressed in transfected cells
# Experiment: GPR84 [35S]GTPγS binding assay, HEPES buffer
# Format: biochemical
# Conditions: 3,3′ di indolylmethane at EC80, membranes from stable cell line over expressing GPR84
# Method in brief: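 Membranes from a stable GPR84-overexpressing cell line (20 μg/well), pre-incubated with 0.1 μM GDP for 15 min at 4° C, mixed with 0.1 nM [35S]GTPγS and WGA SpA beads in 20 mM HEPES pH 7.4, 5 mM MgCl2, 250 mM NaCl, 0.05% BSA, 75 ug/mL saponin. Incubated 90 min at room temperature; scintillation proximity read after centrifugation.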
# T1 sequence (Q9NQS5 whole entry): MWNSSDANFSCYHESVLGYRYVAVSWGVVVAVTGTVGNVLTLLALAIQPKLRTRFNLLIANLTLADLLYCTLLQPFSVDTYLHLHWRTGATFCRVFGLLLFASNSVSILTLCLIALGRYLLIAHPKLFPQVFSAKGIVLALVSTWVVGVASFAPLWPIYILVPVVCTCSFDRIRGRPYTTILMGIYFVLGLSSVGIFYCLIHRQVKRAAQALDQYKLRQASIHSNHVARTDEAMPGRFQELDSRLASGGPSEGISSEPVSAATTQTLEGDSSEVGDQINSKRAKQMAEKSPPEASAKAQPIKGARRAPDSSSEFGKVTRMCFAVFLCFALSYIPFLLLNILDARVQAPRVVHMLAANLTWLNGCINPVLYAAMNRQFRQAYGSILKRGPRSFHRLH
row,IC50 [nM],SMILES
1,100 to 500,"O=C(COc1ccc2c(c1)CCn1c-2cc(OCC2COc3ccccc3O2)nc1=O)N1CCCC1 (stereo not drawn) [compound 74, 2-(2,3-dihydro-benzo[1,4]dioxin-2-ylmethoxy)-9-(2-oxo-2-pyrrolidin-1-yl-ethoxy)-6,7-dihydro-pyrimido[6,1-a]isoquinolin-4-one]"
2,100 to 500,O=c1nc(OC[C@@H]2COc3ncccc3O2)cc2n1CCc1cc(OCc3ncco3)ccc1-2 [compound 190]

# Test system: human neutrophils
# Experiment: Human neutrophil migration assay (embelin-induced chemotaxis)
# Format: cell-based
# Conditions: not given
# Procedure: 2.1. Human Neutrophil Migration Assay
# The effect of agonists or antagonists for GPR84 can therefore be assayed in a neutrophil migration test. In the neutrophil migration assay, neutrophils, freshly isolated from buffy coats from human volunteers, are treated with a compound for 30 min Subsequently, the neutrophils are transferred to the upper wells of a Corning HTS transwell 96 permeable support system, of which the lower wells are filled with a embelin solution at EC80 (concentration which gives 80% of the activity of GPR84). After 1 h of incubation, migration of the neutrophils towards embelin in the lower compartment can be quantified by measuring the ATP-content of the lower wells using the ATPlite luminescence ATP detection assay system (Perkin Elmer, Cat. No.: 436110).
# 2.1.1 Isolation of Neutrophils from Human Buffy Coat
# A human buffy coat is diluted with an equal volume of ice cold DPBS. 20 mL of the diluted buffy coat is gently mixed with 4 mL of ACD buffer (140 mM citric acid, 200 mM sodium citrate and 220 mM dextrose). Then, 12 mL of the 6% dextran/0.9% NaCl solution (15 g dextran T2000 and 2.25 g NaCl dissolved in 250 mL H2O) is added to the mixture and the samples are inverted gently up to 20 times. The total volume was transferred to a new recipient and incubated at room temperature for 1 h for complete separation of the two phases to occur. The yellowish supernatant is then transferred to a clean centrifugation tube and centrifuged for 12 min at 1300 rpm and 4° C. After centrifugation, the supernatant is discarded and the remaining cell pellet is rapidly resuspended in 12 mL of ice-cold H2O for red blood cell lysis to occur. After 20 seconds, 4 mL of ice-cold 0.6 M KCl is added. Samples are mixed carefully and centrifuged for 6 min at 1300 rpm, 4° C. The supernatant is discarded and the red blood cell lysis procedure is repeated one more time. Subsequently, the cell pellet is resuspended in 4 mL of DPBS and layered over 5 mL of Lymphoprep (Nycomed Pharma, Cat. No.: 1114545) in a 15 mL centrifuge tube. After centrifugation for 12 min at 1300 rpm, 4° C., the supernatant is removed and the cell pellet, containing the neutrophils, is resuspended in 25 mL chemotaxis buffer (RPMI 1640 medium, supplemented with 10 mM HEPES; freshly made for each experiment)
# A cell suspension of 8.9×10^6 cells per milliliter is prepared. 20 μL of compound solution in chemotaxis buffer is added to 180 μL cell suspension. The mixture is incubated at 37° C. for 30 min with intermediate resuspension of the cells after 15 min Following this, 70 μL cell suspension is transferred to the upper compartment of a Corning HTS transwell 96 permeable support system with 5.0 μm pore size polycarbonate membrane (Corning, Cat. No.: 3387). The receiver well of the transwell system is then filled with 200 μL chemotaxis buffer containing compound and chemotactic agent (embelin). After incubation at 37° C. in 5% CO2 for 1 h, the upper plate of the transwell system is removed and the cell suspension in the receiver plate is transferred to a 96-well V-bottom plate. 50 μL of DPBS is added to the receiver plate to prevent remaining cells from drying out. The V-bottom plate is centrifuged for 6 min at 1500 rpm. The supernatant is removed and the cells are resuspended in 50 μL DPBS. The cells are then transferred back to the receiver plate of the transwell system. After this, 100 μL ATPlite solution (Perkin Elmer, Cat. No: 436110) was added to the cells. The plate is incubated for 10 min in the dark, while shaking. […] of cell lysate is then transferred to a white 96-well plate and luminescence is measured. The detected luminescent signal is considered as linearely related to the number of cells having migrated from the upper well to the receiver well.
row,SMILES,neutrophil chemotaxis induced by GPR84 agonists
1,"CCCCCCCCCC(=O)[O-].[Na+] [sodiumdecanoate, reference compound]",induce neutrophil chemotaxis
2,"c1ccc2c(Cc3c[nH]c4ccccc34)c[nH]c2c1 [3,3′ di indolylmethane, reference compound]",induce neutrophil chemotaxis

# Same assay, conditions: Neutrophil; neutrophils from human buffy coats; embelin at EC80
row,IC50 [nM],SMILES
1,0.01 to 100,O=c1nc(OC[C@H]2COc3ncccc3O2)cc2n1CCc1cc(OCc3ncco3)ccc1-2 [compound 189]
2,0.01 to 100,"O=c1nc(OCC2COc3ncccc3O2)cc2n1CCc1cc(COC3COC3)ccc1-2 (stereo not drawn) [compound 202, 2-(2,3-dihydro-[1,4]dioxino[2,3-b]pyridin-2-ylmethoxy)-9-(oxetan-3-yloxymethyl)-6,7-dihydro-pyrimido[6,1-a]isoquinolin-4-one]"
3,0.01 to 100,"CC(C)(O)C#Cc1ccc2c(c1)CCn1c-2cc(OCC2COc3ncccc3O2)nc1=O (stereo not drawn) [compound 136, 2-(2,3-dihydro-[1,4]dioxino[2,3-b]pyridin-2-ylmethoxy)-9-(3-hydroxy-3-methyl-but-1-ynyl)-6,7-dihydro-pyrimido[6,1-a]isoquinolin-4-one]"
4,0.01 to 100,"O=c1nc(OCC2CCCO2)cc2n1CCc1cc(OCc3cccc([N+](=O)[O-])c3)ccc1-2 (stereo not drawn) [compound 32, 9-(3-nitro-benzyloxy)-2-(tetrahydro-furan-2-ylmethoxy)-6,7-dihydro-pyrimido[6,1-a]isoquinolin-4-one]"
5,0.01 to 100,"O=C(COc1ccc2c(c1)CCn1c-2cc(OCC2COc3ccccc3O2)nc1=O)N1CCCC1 (stereo not drawn) [compound 74, 2-(2,3-dihydro-benzo[1,4]dioxin-2-ylmethoxy)-9-(2-oxo-2-pyrrolidin-1-yl-ethoxy)-6,7-dihydro-pyrimido[6,1-a]isoquinolin-4-one]"
6,0.01 to 100,"O=c1nc(OCC2COc3ncccc3O2)cc2n1CCc1cc(OCc3ncco3)ccc1-2 (stereo not drawn) [compound 86, 2-(2,3-dihydro-[1,4]dioxino[2,3-b]pyridin-2-ylmethoxy)-9-(oxazol-2-ylmethoxy)-6,7-dihydro-pyrimido[6,1-a]isoquinolin-4-one]"
7,0.01 to 100,"O=c1nc(OCC2CCCO2)cc2n1CCc1cc(OCC3COc4ccccc4O3)ccc1-2 (stereo not drawn) [compound 18, 9-(2,3-dihydro-benzo[1,4]dioxin-2-ylmethoxy)-2-(tetrahydro-furan-2-ylmethoxy)-6,7-dihydro-pyrimido[6,1-a]isoquinolin-4-one]"
8,0.01 to 100,"O=c1nc(OCC2CCCO2)cc2n1CCc1cc(OCCOc3ccccc3)ccc1-2 (stereo not drawn) [compound 15, 9-(2-phenoxy-ethoxy)-2-(tetrahydro-furan-2-ylmethoxy)-6,7-dihydro-pyrimido[6,1-a]isoquinolin-4-one]"
9,0.01 to 100,"CCC(O)C#Cc1ccc2c(c1)CCn1c-2cc(OCC2COc3ncccc3O2)nc1=O (stereo not drawn) [compound 182, 2-(2,3-dihydro-[1,4]dioxino[2,3-b]pyridin-2-ylmethoxy)-9-(3-hydroxy-pent-1-ynyl)-6,7-dihydro-pyrimido[6,1-a]isoquinolin-4-one]"
10,0.01 to 100,"CC(O)C#Cc1ccc2c(c1)CCn1c-2cc(OCC2COc3ncccc3O2)nc1=O (stereo not drawn) [compound 181, 2-(2,3-dihydro-[1,4]dioxino[2,3-b]pyridin-2-ylmethoxy)-9-(3-hydroxy-but-1-ynyl)-6,7-dihydro-pyrimido[6,1-a]isoquinolin-4-one]"
11,0.01 to 100,"O=c1nc(OCC2COc3ncccc3O2)cc2n1CCc1cc(CN3CCCCC3)ccc1-2 (stereo not drawn) [compound 199, 2-(2,3-dihydro-[1,4]dioxino[2,3-b]pyridin-2-ylmethoxy)-9-piperidin-1-ylmethyl-6,7-dihydro-pyrimido[6,1-a]isoquinolin-4-one]"
12,0.01 to 100,"O=c1nc(OCC2COc3ncccc3O2)cc2n1CCc1cc(OCc3ccccn3)ccc1-2 (stereo not drawn) [compound 91, 2-(2,3-dihydro-[1,4]dioxino[2,3-b]pyridin-2-ylmethoxy)-9-(pyridin-2-ylmethoxy)-6,7-dihydro-pyrimido[6,1-a]isoquinolin-4-one]"
13,0.01 to 100,"O=c1nc(OCC2COc3ncccc3O2)cc2n1CCc1cc(-c3cn[nH]c3)ccc1-2 (stereo not drawn) [compound 180, 2-(2,3-dihydro-[1,4]dioxino[2,3-b]pyridin-2-ylmethoxy)-9-(1H-pyrazol-4-yl)-6,7-dihydro-pyrimido[6,1-a]isoquinolin-4-one]"
14,0.01 to 100,"O=c1nc(OCC2COc3ccccc3O2)cc2n1CCc1cc(OCc3nnn[nH]3)ccc1-2 (stereo not drawn) [compound 76, 2-(2,3-dihydro-benzo[1,4]dioxin-2-ylmethoxy)-9-(1H-tetrazol-5-ylmethoxy)-6,7-dihydro-pyrimido[6,1-a]isoquinolin-4-one]"
15,0.01 to 100,"CC(C)C(O)C#Cc1ccc2c(c1)CCn1c-2cc(OCC2COc3ncccc3O2)nc1=O (stereo not drawn) [compound 188, 2-(2,3-dihydro-[1,4]dioxino[2,3-b]pyridin-2-ylmethoxy)-9-(3-hydroxy-4-methyl-pent-1-ynyl)-6,7-dihydro-pyrimido[6,1-a]isoquinolin-4-one]"
16,0.01 to 100,"CC1(COCc2ccc3c(c2)CCn2c-3cc(OCC3COc4ncccc4O3)nc2=O)COC1 (stereo not drawn) [compound 200, 2-(2,3-dihydro-[1,4]dioxino[2,3-b]pyridin-2-ylmethoxy)-9-(3-methyl-oxetan-3-ylmethoxymethyl)-6,7-dihydro-pyrimido[6,1-a]isoquinolin-4-one]"
17,0.01 to 100,"O=c1nc(OCC2COc3ncccc3O2)cc2n1CCc1cc(COCCN3CCOCC3)ccc1-2 (stereo not drawn) [compound 192, 2-(2,3-dihydro-[1,4]dioxino[2,3-b]pyridin-2-ylmethoxy)-9-(2-morpholin-4-yl-ethoxymethyl)-6,7-dihydro-pyrimido[6,1-a]isoquinolin-4-one]"
18,0.01 to 100,"N#CCOc1ccc2c(c1)CCn1c-2cc(OCC2COc3ncccc3O2)nc1=O (stereo not drawn) [compound 89, [2-(2,3-dihydro-[1,4]dioxino[2,3-b]pyridin-2-ylmethoxy)-4-oxo-6,7-dihydro-4H-pyrimido[6,1-a]isoquinolin-9-yloxy]-acetonitrile]"
19,0.01 to 100,"O=c1nc(OCC2COc3ncccc3O2)cc2n1CCc1cc(C#CCNCc3ccccc3)ccc1-2 (stereo not drawn) [compound 193, 9-(3-benzylamino-prop-1-ynyl)-2-(2,3-dihydro-[1,4]dioxino[2,3-b]pyridin-2-ylmethoxy)-6,7-dihydro-pyrimido[6,1-a]isoquinolin-4-one]"
20,100 to 500,"O=c1nc(OCC2CCCO2)cc2n1CCc1cc(OCc3cccc(-c4cncnc4)n3)ccc1-2 (stereo not drawn) [compound 57, 9-(6-pyrimidin-5-yl-pyridin-2-ylmethoxy)-2-(tetrahydro-furan-2-ylmethoxy)-6,7-dihydro-pyrimido[6,1-a]isoquinolin-4-one]"
21,0.01 to 100,O=c1nc(OC[C@@H]2COc3ncccc3O2)cc2n1CCc1cc(OCc3ncco3)ccc1-2 [compound 190]
22,0.01 to 100,"CCCC(O)C#Cc1ccc2c(c1)CCn1c-2cc(OCC2COc3ncccc3O2)nc1=O (stereo not drawn) [compound 183, 2-(2,3-dihydro-[1,4]dioxino[2,3-b]pyridin-2-ylmethoxy)-9-(3-hydroxy-hex-1-ynyl)-6,7-dihydro-pyrimido[6,1-a]isoquinolin-4-one]"
23,100 to 500,"O=c1nc(OCC2COc3ncccc3O2)cc2n1CCc1cc(OCc3nnn[nH]3)ccc1-2 (stereo not drawn) [compound 93, 2-(2,3-dihydro-[1,4]dioxino[2,3-b]pyridin-2-ylmethoxy)-9-(1H-tetrazol-5-ylmethoxy)-6,7-dihydro-pyrimido[6,1-a]isoquinolin-4-one]"

# Reference: patent US9708312B2, “Dihydropyrimidinoisoquinolinones and pharmaceutical compositions thereof for the treatment of inflammatory disorders (GPR84 antagonists)” (GALAPAGOS NV, priority 2012, dated 2017)
